According to ChEMBL document CHEMBL6182870, “Synthesis and biological activity of 1H-pyrrolo[3,2-g]isoquinolines as Haspin kinase inhibitors” (Bioorg Med Chem, 2025):

Assays:
[1] = biological target: Dual specificity tyrosine-phosphorylation-regulated kinase 1A (Rattus norvegicus, UniProt Q63470); test: Inhibition of recombinant rat DYRK1A kinase domain (1 to 499 residues) extracted from bacteria using KKISGRLSPIMTEQ as substrate incubated for 30 mins in presence of ATP by ADP-Glo kinase assay
[2] = biological target: Dual specificity protein kinase CLK1 (Mus musculus) (UniProt P22518); test: Inhibition of recombinant mouse CLK1 extracted from bacteria using GRSRSRSRSRSR as substrate assessed as enzyme residual activity at 1 uM incubated for 30 mins in presence of ATP by ADP-Glo kinase assay relative to control
[3] = biological target: Dual specificity tyrosine-phosphorylation-regulated kinase 1A (Rattus norvegicus) (UniProt Q63470); test: Inhibition of recombinant rat DYRK1A kinase domain (1 to 499 residues) extracted from bacteria using KKISGRLSPIMTEQ as substrate assessed as enzyme residual activity at 1 uM incubated for 30 mins in presence of ATP by ADP-Glo kinase assay relative to control
[4] = biological target: T1, Serine/threonine-protein kinase pim-1 (Homo sapiens, UniProt P11309); test: Inhibition of recombinant human PIM-1 extracted from bacteria using histone H1 as substrate assessed as enzyme residual activity at 1 uM incubated for 30 mins in presence of ATP by ADP-Glo kinase assay relative to control
Target sequence in this assay (P11309 whole entry, looked up, the tested form may be a part): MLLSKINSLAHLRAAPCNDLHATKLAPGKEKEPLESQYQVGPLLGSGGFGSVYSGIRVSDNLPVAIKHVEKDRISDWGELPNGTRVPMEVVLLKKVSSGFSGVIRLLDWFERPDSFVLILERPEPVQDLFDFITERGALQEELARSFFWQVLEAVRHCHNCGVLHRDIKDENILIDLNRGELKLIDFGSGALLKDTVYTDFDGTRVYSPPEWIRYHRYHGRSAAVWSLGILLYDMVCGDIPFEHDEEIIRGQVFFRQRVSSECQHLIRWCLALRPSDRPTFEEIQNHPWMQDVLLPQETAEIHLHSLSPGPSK

[5] = biological target: T2, Serine/threonine-protein kinase haspin (Homo sapiens) (UniProt Q8TF76); test: Inhibition of recombinant human haspin kinase domain (470 to 798 residues) extracted from bacteria using histone H3 (1 to 21) peptide as substrate assessed as residual activity at 10 uM incubated for 30 mins in presence of ATP by ADP-Glo kinase assay relative to control
T2 sequence (whole entry): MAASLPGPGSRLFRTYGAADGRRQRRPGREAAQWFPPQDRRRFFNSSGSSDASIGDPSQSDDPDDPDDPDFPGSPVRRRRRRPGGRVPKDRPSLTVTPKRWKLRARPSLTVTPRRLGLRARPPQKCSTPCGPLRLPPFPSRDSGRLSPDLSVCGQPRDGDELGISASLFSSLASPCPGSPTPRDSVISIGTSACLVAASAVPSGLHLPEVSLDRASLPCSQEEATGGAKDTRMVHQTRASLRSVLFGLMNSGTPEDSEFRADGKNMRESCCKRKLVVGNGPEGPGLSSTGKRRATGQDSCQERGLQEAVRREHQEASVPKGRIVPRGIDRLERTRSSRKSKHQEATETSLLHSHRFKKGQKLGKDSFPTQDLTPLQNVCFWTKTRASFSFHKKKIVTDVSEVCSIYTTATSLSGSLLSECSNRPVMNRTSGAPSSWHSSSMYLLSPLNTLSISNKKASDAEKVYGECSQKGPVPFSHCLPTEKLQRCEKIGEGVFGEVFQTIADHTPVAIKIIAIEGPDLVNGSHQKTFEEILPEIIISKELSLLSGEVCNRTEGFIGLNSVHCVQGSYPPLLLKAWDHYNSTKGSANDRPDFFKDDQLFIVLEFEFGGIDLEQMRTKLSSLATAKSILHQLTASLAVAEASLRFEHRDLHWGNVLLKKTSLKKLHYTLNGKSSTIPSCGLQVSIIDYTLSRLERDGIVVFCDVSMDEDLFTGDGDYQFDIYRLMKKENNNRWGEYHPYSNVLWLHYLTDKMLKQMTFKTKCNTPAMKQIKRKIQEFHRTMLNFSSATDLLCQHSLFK

[6] = biological target: Dual specificity protein kinase CLK1 (Mus musculus, UniProt P22518); test: Inhibition of recombinant mouse CLK1 extracted from bacteria using GRSRSRSRSRSR as substrate incubated for 30 mins in presence of ATP by ADP-Glo kinase assay
[7] = biological target: Dual specificity tyrosine-phosphorylation-regulated kinase 1A (Rattus norvegicus) (UniProt Q63470); test: Inhibition of recombinant rat DYRK1A kinase domain (1 to 499 residues) extracted from bacteria using KKISGRLSPIMTEQ as substrate assessed as enzyme residual activity at 10 uM incubated for 30 mins in presence of ATP by ADP-Glo kinase assay relative to control
[8] = biological target: T3, Cyclin-dependent kinase 5/CDK5 activator 1 (Homo sapiens) (UniProt Q00535+Q15078); test: Inhibition of recombinant human CDK5/p25 extracted from bacteria using histone H1 as substrate assessed as enzyme residual activity at 1 uM incubated for 30 mins in presence of ATP by ADP-Glo kinase assay relative to control; type: protein-complex assay
[9] = biological target: T3, Cyclin-dependent kinase 5/CDK5 activator 1 (Homo sapiens); test: Inhibition of recombinant human CDK5/p25 extracted from bacteria using histone H1 as substrate assessed as enzyme residual activity at 10 uM incubated for 30 mins in presence of ATP by ADP-Glo kinase assay relative to control; type: protein-complex assay
[10] = biological target: Glycogen synthase kinase-3 beta (Homo sapiens) (UniProt P49841); test: Inhibition of recombinant human GSK3beta extracted from baculovirus infected Sf9 cells using GS-1 (YRRAAVPPSPSLSRHSSPHQSpEDEEE) peptide as substrate assessed as enzyme residual activity at 1 uM incubated for 30 mins in presence of ATP by ADP-Glo kinase assay relative to control
[11] = Selectivity index, ratio of IC50 for inhibition of recombinant rat DYRK1A kinase domain (1to 499 residues) extracted from bacteria to IC50 for inhibition of human haspin kinase domain (470 to 798 residues) extracted from bacteria using histone H3 (1 to 21) peptide as substrate
[12] = biological target: Glycogen synthase kinase-3 beta (Homo sapiens) (UniProt P49841); test: Inhibition of recombinant human GSK3beta extracted from baculovirus infected Sf9 cells using GS-1 (YRRAAVPPSPSLSRHSSPHQSpEDEEE) peptide as substrate assessed as enzyme residual activity at 10 uM incubated for 30 mins in presence of ATP by ADP-Glo kinase assay relative to control
[13] = biological target: T1, Serine/threonine-protein kinase pim-1; test: Inhibition of recombinant human PIM-1 extracted from bacteria using histone H1 as substrate assessed as enzyme residual activity at 10 uM incubated for 30 mins in presence of ATP by ADP-Glo kinase assay relative to control
Target sequence in this assay (P11309 whole entry, looked up, the tested form may be a part): as the sequence (P11309 whole entry, looked up, the tested form may be a part) above

[14] = biological target: Dual specificity protein kinase CLK1 (Mus musculus) (UniProt P22518); test: Inhibition of recombinant mouse CLK1 extracted from bacteria using GRSRSRSRSRSR as substrate assessed as enzyme residual activity at 10 uM incubated for 30 mins in presence of ATP by ADP-Glo kinase assay relative to control
[15] = biological target: Casein kinase I isoform epsilon (Homo sapiens) (UniProt P49674); test: Inhibition of recombinant human CK1epsilon extracted from baculovirus infected Sf9 cells using RRKHAAIGSpAYSITA peptide as substrate assessed as enzyme residual activity at 10 uM incubated for 30 mins in presence of ATP by ADP-Glo kinase assay relative to control
[16] = biological target: T2, Serine/threonine-protein kinase haspin (Homo sapiens); test: Inhibition of recombinant human haspin kinase domain (470 to 798 residues) extracted from bacteria using histone H3 (1 to 21) peptide as substrate assessed as residual activity at 1 uM incubated for 30 mins in presence of ATP by ADP-Glo kinase assay relative to control
[17] = Inhibition of recombinant human CDK9/Cyclin T extracted from baculovirus infected Sf9 cells using YSPTSPSYSPTSPSYSPTSPSKKKK as substrate assessed as enzyme residual activity at 10 uM incubated for 30 mins in presence of ATP by ADP-Glo kinase assay relative to control
[18] = biological target: T4, Serine/threonine-protein kinase haspin (Homo sapiens, UniProt Q8TF76); test: Inhibition of recombinant human haspin kinase domain (470 to 798 residues) extracted from bacteria using histone H3 (1 to 21) peptide as substrate incubated for 30 mins in presence of ATP by ADP-Glo kinase assay
T4 sequence (Q8TF76 whole entry): T2 sequence (whole entry)

[19] = Inhibition of recombinant human CDK9/Cyclin T extracted from baculovirus infected Sf9 cells using YSPTSPSYSPTSPSYSPTSPSKKKK as substrate assessed as enzyme residual activity at 1 uM incubated for 30 mins in presence of ATP by ADP-Glo kinase assay relative to control
[20] = biological target: Casein kinase I isoform epsilon (Homo sapiens) (UniProt P49674); test: Inhibition of recombinant human CK1epsilon extracted from baculovirus infected Sf9 cells using RRKHAAIGSpAYSITA peptide as substrate assessed as enzyme residual activity at 1 uM incubated for 30 mins in presence of ATP by ADP-Glo kinase assay relative to control
[21] = biological target: T2, Serine/threonine-protein kinase haspin (Homo sapiens); test: Inhibition of haspin in human U2OS cells assessed as at 1 uM incubated for 16 hrs by DAPI staining based immunofluorescence analysis relative to control; type: cell-based
[22] = Cytotoxicity against human hTERT-RPE1 cells assessed as effect on cell viability incubated for 48 hrs by MTS assay; type: toxicity, cell-based, TERT-RPE1
[23] = biological target: T1, Serine/threonine-protein kinase pim-1; test: Inhibition of recombinant human PIM-1 extracted from bacteria using histone H1 as substrate incubated for 30 mins in presence of ATP by ADP-Glo kinase assay
Target sequence in this assay (P11309 whole entry, the tested form may be a part): as the sequence (P11309 whole entry, looked up, the tested form may be a part) above

[24] = test system: HBL-100; test: Antiproliferative activity against human HBL-100 cells assessed as inhibition of cell viability incubated for 48 hrs by MTS assay; type: functional, cell-based; conditions: HBL-100, 48 h
[25] = test system: SH-SY5Y; test: Antiproliferative activity against human SH-SY5Y cells assessed as inhibition of cell viability incubated for 48 hrs by MTS assay; type: functional, cell-based
[26] = test system: HCT-116; test: Antiproliferative activity against human HCT-116 cells assessed as inhibition of cell viability incubated for 48 hrs by MTS assay; type: functional, cell-based; conditions: HCT-116, 48 h
[27] = test system: U2OS; test: Antiproliferative activity against human U2OS cells assessed as inhibition of cell viability incubated for 48 hrs by MTS assay; type: functional, cell-based
[28] = biological target: T2, Serine/threonine-protein kinase haspin (Homo sapiens); test: Inhibition of haspin in human U2OS cells assessed as at 5 uM incubated for 16 hrs by DAPI staining based immunofluorescence analysis relative to control; type: cell-based

Chain of Casein kinase I isoform epsilon (Homo sapiens) (P49674 whole entry, looked up, the tested form may be a part, canonical isoform): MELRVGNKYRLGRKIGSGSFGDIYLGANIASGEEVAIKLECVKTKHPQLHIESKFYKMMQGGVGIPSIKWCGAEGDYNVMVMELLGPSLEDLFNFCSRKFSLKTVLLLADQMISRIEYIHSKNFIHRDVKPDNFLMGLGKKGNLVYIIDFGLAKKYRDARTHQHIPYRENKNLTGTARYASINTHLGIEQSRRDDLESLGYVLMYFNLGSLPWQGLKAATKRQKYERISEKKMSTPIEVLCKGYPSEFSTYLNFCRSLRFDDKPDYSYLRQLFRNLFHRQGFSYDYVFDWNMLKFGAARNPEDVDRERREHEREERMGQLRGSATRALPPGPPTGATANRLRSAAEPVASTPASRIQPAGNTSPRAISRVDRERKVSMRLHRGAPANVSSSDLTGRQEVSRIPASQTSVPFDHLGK
Chain of Dual specificity protein kinase CLK1 (P22518 whole entry, the tested form may be a part): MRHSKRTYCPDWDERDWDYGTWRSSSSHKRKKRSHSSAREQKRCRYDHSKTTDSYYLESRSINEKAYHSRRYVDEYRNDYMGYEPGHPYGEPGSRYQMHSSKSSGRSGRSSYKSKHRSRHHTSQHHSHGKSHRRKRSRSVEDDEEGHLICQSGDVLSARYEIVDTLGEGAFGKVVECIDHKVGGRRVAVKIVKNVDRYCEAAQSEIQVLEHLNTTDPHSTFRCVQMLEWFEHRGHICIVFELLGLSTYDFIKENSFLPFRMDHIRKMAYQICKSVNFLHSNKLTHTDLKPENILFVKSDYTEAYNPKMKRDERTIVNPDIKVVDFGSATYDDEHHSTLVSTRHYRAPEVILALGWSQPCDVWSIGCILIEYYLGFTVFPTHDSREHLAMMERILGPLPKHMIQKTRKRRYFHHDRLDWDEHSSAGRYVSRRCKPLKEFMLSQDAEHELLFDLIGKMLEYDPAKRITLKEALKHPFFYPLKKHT
Chain of Dual specificity protein kinase CLK1 (Mus musculus) (P22518 whole entry, looked up, the tested form may be a part, canonical isoform): as the sequence (P22518 whole entry, the tested form may be a part) above
Chain of Glycogen synthase kinase-3 beta (Homo sapiens) (P49841 whole entry, looked up, the tested form may be a part): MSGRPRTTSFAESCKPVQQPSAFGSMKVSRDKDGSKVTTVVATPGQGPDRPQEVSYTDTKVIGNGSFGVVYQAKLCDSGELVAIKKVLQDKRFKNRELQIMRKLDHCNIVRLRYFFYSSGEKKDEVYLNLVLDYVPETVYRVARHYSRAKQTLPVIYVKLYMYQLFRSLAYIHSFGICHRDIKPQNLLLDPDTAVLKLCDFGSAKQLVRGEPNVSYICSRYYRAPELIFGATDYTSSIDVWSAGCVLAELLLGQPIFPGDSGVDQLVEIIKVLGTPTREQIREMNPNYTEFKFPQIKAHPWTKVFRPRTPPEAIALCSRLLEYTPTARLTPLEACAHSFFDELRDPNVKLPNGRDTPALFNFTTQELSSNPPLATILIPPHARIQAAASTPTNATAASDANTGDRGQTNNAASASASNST
T3 sequence (Q00535 whole entry): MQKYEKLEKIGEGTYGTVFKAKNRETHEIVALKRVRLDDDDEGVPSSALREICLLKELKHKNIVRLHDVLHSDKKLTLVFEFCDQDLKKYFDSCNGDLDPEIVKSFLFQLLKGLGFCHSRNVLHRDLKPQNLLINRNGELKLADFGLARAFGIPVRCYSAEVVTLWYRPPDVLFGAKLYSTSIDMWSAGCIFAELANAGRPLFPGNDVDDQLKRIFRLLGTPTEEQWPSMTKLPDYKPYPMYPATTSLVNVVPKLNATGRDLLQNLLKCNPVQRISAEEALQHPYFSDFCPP
T3 sequence (Q15078 99-307 partner limits assumed): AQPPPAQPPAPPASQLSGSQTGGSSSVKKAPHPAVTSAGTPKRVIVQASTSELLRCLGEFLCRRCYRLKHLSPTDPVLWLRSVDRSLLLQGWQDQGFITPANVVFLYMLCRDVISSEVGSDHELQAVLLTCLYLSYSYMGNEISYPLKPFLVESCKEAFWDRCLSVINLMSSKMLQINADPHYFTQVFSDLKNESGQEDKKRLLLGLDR

Compound | IC50 [1] [nM] | Activity [2] [%] | Activity [3] [%] | Activity [4] [%] | Activity [5] [%] | IC50 [6] [nM] | Activity [7] [%] | Activity [8] [%] | Activity [9] [%] | Activity [10] [%] | Activity [12] [%] | Activity [13] [%] | Activity [14] [%] | Activity [15] [%] | Activity [16] [%] | Activity [17] [%] | IC50 [18] [nM] | Activity [19] [%] | Activity [20] [%] | EC50 at 48 h [22] [nM] | further results
c1ccc(-c2c[nH]c3cc4cnccc4cc23)nc1 | 159 | 27 | 27 | 63 | 3 | 387 | 11 | 72 | 35 | 84 | 72 | 19 | 10 | 90 | 8 | 49 | 84.4 | 90 | 97 |  | Ratio IC50 [11]: 1.9
CCCNc1ccc2ncc(-c3ccc4[nH]ncc4c3)n2n1 |  |  |  |  |  |  |  |  |  |  |  |  |  |  |  |  |  |  |  |  | inhibition [21]: 100%
Cn1cc(-c2cccnc2)c2cc3ccncc3cc21 | 498 | 18 | 33 | 45 | 3 | 177 | 12 | 79 | 75 | 69 | 34 | 54 | 7 | 65 | 9 | 39 | 31.7 | 81 | 94 | 17800 | IC50 [23]: 876 nM; EC50 [24]: 26900 nM; EC50 [25]: 17700 nM; EC50 [26]: 15000 nM; EC50 [27]: 11500 nM; inhibition [28]: No effect
c1cncc(-c2c[nH]c3cc4cnccc4cc23)c1 | 602 | 19 | 36 | 37 | 2 | 237 | 6 | 86 | 57 | 75 | 37 | 22 | 8 | 70 | 7 | 39 | 30.6 | 74 | 91 | 18200 | IC50 [23]: 114 nM; EC50 [24]: > 50000 nM; EC50 [25]: 41200 nM; EC50 [26]: 13000 nM; EC50 [27]: 26700 nM; inhibition [28]: 26%
Cn1cc(-c2ccncc2)c2cc3ccncc3cc21 | 339 | 35 | 23 | 37 | 5 | 546 | 9 | 63 | 44 | 74 | 92 | 18 | 13 | 42 | 7 | 59 | 23.6 | 97 | 72 | 2300 | IC50 [23]: 1270 nM; EC50 [24]: 6600 nM; EC50 [25]: 6400 nM; EC50 [26]: 2100 nM; EC50 [27]: 3200 nM; inhibition [28]: 37%
